No end group written: not given here.
Target: T1, GMP-140 (Homo sapiens, UniProt P16109)
T1 construct: from tissue; host or cells: human platelets (outdated platelet packs from a blood bank)
T1 sequence (P16109 42-830): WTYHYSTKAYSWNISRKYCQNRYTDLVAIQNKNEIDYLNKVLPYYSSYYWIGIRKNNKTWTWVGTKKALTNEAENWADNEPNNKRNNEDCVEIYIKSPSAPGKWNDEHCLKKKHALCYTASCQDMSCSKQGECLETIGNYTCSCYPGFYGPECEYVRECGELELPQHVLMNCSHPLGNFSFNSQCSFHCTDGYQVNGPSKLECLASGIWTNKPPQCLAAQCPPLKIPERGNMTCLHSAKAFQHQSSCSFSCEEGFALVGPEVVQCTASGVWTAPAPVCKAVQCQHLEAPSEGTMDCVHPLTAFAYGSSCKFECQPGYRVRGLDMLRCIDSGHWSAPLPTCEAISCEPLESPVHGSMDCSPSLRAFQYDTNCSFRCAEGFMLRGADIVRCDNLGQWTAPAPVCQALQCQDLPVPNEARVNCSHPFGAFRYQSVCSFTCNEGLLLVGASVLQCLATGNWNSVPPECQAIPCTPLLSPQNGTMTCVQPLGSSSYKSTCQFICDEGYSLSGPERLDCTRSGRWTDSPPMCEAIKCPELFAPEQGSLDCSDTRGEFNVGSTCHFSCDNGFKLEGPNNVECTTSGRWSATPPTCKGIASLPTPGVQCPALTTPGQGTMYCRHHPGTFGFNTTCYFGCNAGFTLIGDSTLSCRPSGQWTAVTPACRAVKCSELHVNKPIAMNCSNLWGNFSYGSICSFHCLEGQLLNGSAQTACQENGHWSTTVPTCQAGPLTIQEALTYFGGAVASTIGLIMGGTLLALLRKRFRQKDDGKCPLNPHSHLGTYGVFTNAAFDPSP
Assay: Inhibition of neutrophil binding to GMP-140 coated wells
Format: cell-based
Conditions: read-out: PERCENT INHIBITION OF NEUTROPHIL BINDING
Text: Peptides can be screened for their ability to inhibit adhesion to cells, for example, neutrophil adhesion to purified GMP-140 immobilized on plastic wells, using the assay described by Geng, et al., Nature 343, 757-760 (1990).
Human neutrophils are isolated from heparinized whole blood by density gradient centrifugation on Mono-Poly resolving media, Flow Laboratories. Neutrophil suspensions are greater than 98% pure and greater than 95% viable by trypan blue exclusion. For adhesion assays, neutrophils are suspended at a concentration of 2×10^6 cells/ml in Hanks' balanced salt solution containing 1.26 mM Ca^2+ and 0.81 mM Mg^2+ (HBSS, Gibco) with 5 mg/ml human serum albumin (HBSS/HSA). Adhesion assays are conducted in triplicate in 96-well microtiter plates, Corning, incubated at 4° C. overnight with 50 microliters of various protein solutions.
GMP-140 is isolated from human platelet lysates by immunoaffinity chromatography on antibody S12-Sepharose™ and ion-exchange chromatography on a Mono-Q™ column (FLPC, Pharmacia Fine Chemicals), as follows.
Outdated human platelet packs (100 units) obtained from a blood bank and stored at 4° C. are pooled, adjusted to 5 mM EDTA at pH 7.5, centrifuged at 4,000 rpm for 30 min in 1 liter bottles, then washed three times with 1 liter of 0.1 M NaCl, 20 mM Tris pH 7.5 (TBS), 5 mM EDTA, 5 mM benzamidine.
The pellets are then resuspended in a minimum amount of wash buffer and made 1 mM in DIFP, then frozen in 50 ml screwtop tubes at -80° C. The frozen platelets are thawed and resuspended in 50 ml TBS, 5 mM benzamidine, 5 mM EDTA pH 7.5, 100 µM leupeptin. The suspension is frozen and thawed two times in a dry ice-acetone bath using a 600 ml lyophilizing flask, then homogenized in a glass/teflon mortar and pestle and made 1 mM in DIFP. The NaCl concentration is adjusted to 0.5 M with a stock solution of 4 M NaCl. […]
Bound GMP-140 is eluted from the S12 Affigel with 100 ml of 80% ethylene glycol, 1 mM MES pH 6.0, 0.01% Lubrol PX. Peak fractions with absorbance at 280 nm are pooled. […]

inhibition at 100 µM (peptide concentration 0.10 Mm): 19% | inhibition at 300 µM (peptide concentration 0.30 Mm): 63% | inhibition at 1000 µM (peptide concentration 1.0 Mm): 67%
Substance: RKEAEIWTDV-NH2 [RKEAEIWTDV-NH2, Arginyl-lysyl-glutamyl-alanyl-glutamyl-isoleucyl-tryptophyl-threonyl-aspartyl-valine amide]

— patent publication US6111065A, “Peptide inhibitors of inflammation mediated by selectins” (Centocor, Inc., priority 1994, dated 2000)
